Biological target: T1, LSD1 in HCT116 cells (Homo sapiens, UniProt O60341)
T1 construct: host or cells: HCT116
Assay: LSD1 degradation (LSD1 abundance) by western blot
Format: cell-based
Settings: HCT116, 0.1–10 μM, 24 hours, LSD1 antibody
Protocol: Using the same conditions, we also determined the effects of SP2509, 25, 27, 28, 30 and 31 on histone H3 lysine 4 dimethyl (H3K4me2) a validated substrate for LSD1 using a specific antibody for H3K4me2 (Fig. S4 ^†).
Compounds were tested at concentration ranges of 0.2–20 μM and LSD1 abundance was quantified at 24 hours (Fig. S5 ^†). 49, 52 and 54 were also evaluated at 48 and 72 hours. […] We also determined the effects of these compounds on the histone methyl marker H3K4me2 (Fig. S5 and S6 ^†).
2.5 Protocols for LSD1 degradation and histone methylation in HCT116 cells HCT116 human colon carcinoma cells were grown in Dulbecco’s Modified Eagle Medium (DMEM) supplemented with Fetal Bovine Serum (FBS, 10% final concentration) and 1x glutamine/penicillin/streptomycin. Cells were incubated at 37 °C and 5% CO2. Cells were treated […]
untreated (WT) cells were included as controls.
HCT116 cells were seeded into six well plates (400000 cells per well) and after requisite compound treatment time (24h, 48h, 72h) cells were harvested and either snap-frozen in liquid nitrogen or lysed in lysis buffer (50mM Tris-HCl, 150 mM NaCl, 0.5% NP-40, 0.5% Triton X-100 + protease inhibitor) on ice for 30 mins. This was centrifuged (15000 rpm, 4 °C, 15 mins) and the supernatant collected.
H2SO4 (0.4 M, equal volume) was added to the pellets for histone extraction and the tubes incubated overnight at 4 °C. Following this, the histone extract was centrifuged (15000 rpm, 4 °C, 15 mins) and the supernatant collected. Protein concentrations of whole cell extract were quantified via Bradford Assay using BIO-RAD Protein Assay Dye Reagent Concentrate. […]
or an equivalent volume of histone extract loaded per lane, with all extracts dyed with 4x NuPAGE LDS Sample Buffer. PageRuler Plus Prestained Ladder was used as a reference. Gel electrophoresis was carried out at 140 V for 60-90 mins, following which the proteins were transferred onto nitrocellulose membrane at 30 V for 60 mins. Membranes were blocked in LI-COR Intercept Blocking Buffer overnight at RT on a roller, following which the membrane was probed with primary antibodies for 1 h at RT. The membrane was washed with PBS + 0.1% Tween (3 x 10 mins), then incubated with secondary antibodies for 50 mins at RT. The membrane was washed again (PBS Tween 2 x 10 mins, PBS 1 x 10 mins) following which the blot was visualised with the Odyssey Infrared Imaging System. Image processing and quantification was performed with ImageStudio Lite. […]
a-tubulin (mouse) – Sigma, t5168 (1:10000 dilution)

C/C(=N\NC(=O)c1cccc(S(=O)(=O)N2CCOCC2)c1)c1cc(Cl)ccc1O [SP2509, reference compound]
LSD1 abundance (degradation): no degradation or change in LSD1 levels

— article PMC12323867 (RSC Medicinal Chemistry, 2025)
